Measured values from patent US20230159496A1, “COMPOUNDS AND METHODS FOR MODULATING SPLICING” (REMIX THERAPEUTICS INC., priority 2020, published 2023).
pIC50: −log10 of the molar value. Counter-ions that a name gives are not always drawn. Like-named read-outs stand apart in the source and are kept apart here.

Legend:
Type in all cases: cell-based
HTT mRNA = assay: Splicing assay (RT-qPCR) monitoring HTT canonical junction (CJ) and alternative junction (AJ) mRNA isoforms; conditions: A673 or K562 cells, 24 h treatment, top dose 10 uM
Outline: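 A673 or K562 cells treated 24 h at 37 °C with an 11-point 3-fold dilution (top 10 uM final, DMSO ≤0.25%). Lysates assayed by one-step RT-qPCR for HTT CJ and AJ isoforms, normalized to GAPDH, GUSB (K562) or PPIA (A673).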

HTT CJ mRNA = assay: Gene panel canonical junction qPCR assay, HTT; conditions: decrease in CJ mRNA levels, gene panel; read-out: HTT IC50
Outline: (§1)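 A673 or K562 cells were treated for 24 h at 37 °C with an 11-point 3-fold dilution, top dose 10 uM, DMSO ≤0.25%. Canonical junction mRNA in lysates was quantified by one-step RT-qPCR and normalized to GAPDH, GUSB or PPIA.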

SMN2 CJ mRNA = assay: Gene panel canonical junction qPCR assay, SMN2; conditions: decrease in CJ mRNA levels, gene panel; read-out: SMN2 IC50
Outline: as §1

Target C CJ mRNA = assay: Gene panel canonical junction qPCR assay, Target C; conditions: decrease in CJ mRNA levels, gene panel; read-out: Target C IC50
Outline: as §1

[1] = decrease in CJ mRNA (50% response), read-out: HTT CJ AC50
[2] = increase in AJ mRNA (50% response), read-out: HTT AJ AC50

pIC50 (HTT CJ mRNA) | pIC50 (SMN2 CJ mRNA) | pIC50 (Target C CJ mRNA) | SMILES | AC50 (HTT mRNA; [1]) [nM] | AC50 (HTT mRNA; [2]) [nM]
5.00 to 6.00 | 6.00 to 7.00 | 5.00 to 6.00 | Cc1cn2cc(-c3ccc4c(=O)n(C5CCN(C)CC5)cnc4c3)nc2c(C)n1 [Compound 302] | 1000 to 10000 | 1000 to 10000
5.00 to 6.00 | 5.00 to 6.00 | 5.00 to 6.00 | Cn1cc2cc(-c3ccc4c(=O)n(C5CCNCC5)ncc4c3)cc(F)c2n1 [Compound 249] | 1000 to 10000 | 1000 to 10000
< 5.00 | < 5.00 | < 5.00 | CN1CCC(n2cnc3cc(-c4cn[nH]c4)ccc3c2=O)CC1 [Compound 299] | > 10000 | > 10000
6.00 to 7.00 | 6.00 to 7.00 | 6.00 to 7.00 | Cc1cn2nc(-c3ccc4nc(N5CCNC6(CC6)C5)[nH]c(=O)c4c3)cc(C)c2n1 [Compound 190] | 100 to 1000 | 100 to 1000
5.00 to 6.00 | 6.00 to 7.00 | 5.00 to 6.00 | Cc1cn2nc(-c3ccc4c(=O)n(C5CCN(C)CC5)cnc4c3)cc2c(C)n1 [Compound 303] | 1000 to 10000 | 1000 to 10000
> 7.00 | > 7.00 | 6.00 to 7.00 | Cc1cn2cc(-c3ccc4c(=O)n(C5CCNCC5)ncc4c3)cc(F)c2n1 [Compound 248, 6-[8-fluoro-2-methylimidazo[1,2-a]pyridin-6-yl]-2-(piperidin-4-yl)phthalazin-1-one] | < 100 | 100 to 1000
5.00 to 6.00 | 6.00 to 7.00 | < 5.00 | Cc1cn2cc(-c3ccc4c(c3)CCN(C3CCNCC3)C4=O)cc(C)c2n1 [Compound 217] | 1000 to 10000 | 1000 to 10000
> 7.00 | > 7.00 | > 7.00 | Cc1cn2cc(-c3cc(F)c4c(=O)n(C5CCNCC5)cnc4c3)cc(F)c2n1 [Compound 230, 5-fluoro-7-{8-fluoro-2-methylimidazo [1,2-a]pyridin-6-yl}-3-(piperidin-4-yl)quinazolin-4-one] | < 100 | < 100
5.00 to 6.00 | > 7.00 | < 5.00 | Cc1cn2nc(-c3ccc4c(c3)CCN(C3CCN(C)CC3)C4=O)cc(C)c2n1 [Compound 268] | 1000 to 10000 | 1000 to 10000
5.00 to 6.00 | 6.00 to 7.00 | < 5.00 | Cc1cn2nc(-c3ccc4c(=O)n(C5CCNC5)ncc4c3)cc(C)c2n1 (centres unmarked) [Compound 264, 6-{2,8-dimethylimidazo[1,2-b]pyridazin-6-yl}-2-(pyrrolidin-3-yl)phthalazin-1-one] | 1000 to 10000 | 1000 to 10000
< 5.00 | < 5.00 | 5.00 to 6.00 | CN1CCC(c2ccc3c(=O)n(-c4ccc5nn(C)cc5c4)cnc3c2)CC1 [Compound 177, 3-(2-methyl-2H-indazol-5-yl)-7-(1-methylpiperidin-4-yl)quinazolin-4(3H)-one] | > 10000 | > 10000
> 7.00 | > 7.00 | 6.00 to 7.00 | Cc1nc2c(F)cc(-c3ccc4c(=O)n(C5CCNCC5)ncc4c3)cc2o1 [Compound 250] | < 100 | < 100
< 5.00 | 5.00 to 6.00 | < 5.00 | O=c1c2ccc(-c3cn[nH]c3)cc2ncn1C1CCNCC1 [Compound 284] | > 10000 | > 10000
6.00 to 7.00 | > 7.00 | 5.00 to 6.00 | CC[C@@H]1C[C@H](n2ncc3cc(-c4cc(C)c5nc(C)cn5n4)ccc3c2=O)CCN1 [Compound 304, 6-{2,8-dimethylimidazo[1,2-b]pyridazin-6-yl}-2-[(2R,4R)-2-ethylpiperidin-4-yl]phthalazin-1-one] | 1000 to 10000 | 1000 to 10000
6.00 to 7.00 | > 7.00 | 5.00 to 6.00 | Cc1cn2cc(-c3ccc4c(=O)n(C5CCNC(C)(C)C5)cnc4c3)cc(F)c2n1 (centres unmarked) [Compound 237, 3-(2,2-dimethylpiperidin-4-yl)-7-(8-fluoro-2-methylimidazo[1,2-a]pyridin-6-yl)quinazolin-4(3H)-one] | 100 to 1000 | 100 to 1000
< 5.00 | 6.00 to 7.00 | < 5.00 | Cc1cc(-c2ccc3c(=O)n(C4CCN(C)CC4)cnc3c2F)cc2cn(C)nc12 [Compound 235, 7-(2,7-dimethyl-2H-indazol-5-yl)-8-fluoro-3-(1-methylpiperidin-4-yl)quinazolin-4(3H)-one] | > 10000 | > 10000
5.00 to 6.00 | 5.00 to 6.00 | 5.00 to 6.00 | Cc1cc(-c2ccc3nc(N4CCNCC4)[nH]c(=O)c3c2)cc2cn(C)nc12 [Compound 166, 6-(2,7-dimethyl-2H-indazol-5-yl)-2-(piperazin-1-yl)quinazolin-4(3H)-one] | 1000 to 10000 | 1000 to 10000
< 5.00 | < 5.00 | < 5.00 | Cn1cc2ccc(-c3ccc4c(=O)n(C5CCNCC5)ncc4c3)cc2n1 [Compound 263] | > 10000 | > 10000
> 7.00 | > 7.00 | 6.00 to 7.00 | Cc1cc(-c2cc(F)c3c(=O)n(C4CCNCC4)cnc3c2)cc2cn(C)nc12 [Compound 232] | < 100 | < 100
> 7.00 | > 7.00 | 6.00 to 7.00 | Cc1cn2nc(-c3cc(F)c4c(=O)n(C5CCN(C)CC5)cnc4c3)cc(C)c2n1 [Compound 242, 7-(2,8-dimethylimidazo[1,2-b]pyridazin-6-yl)-5-fluoro-3-(1-methylpiperidin-4-yl)quinazolin-4(3H)-one] | < 100 | < 100
> 7.00 | > 7.00 | > 7.00 | Cc1cn2nc(-c3ccc4c(=O)n(C5CCNC6(CC6)C5)ncc4c3)cc(C)c2n1 (centres unmarked) [Compound 274] | < 100 | < 100
6.00 to 7.00 | > 7.00 | 6.00 to 7.00 | Cc1cn2nc(-c3ccc4c(=O)n(C5CCNC(C)(C)C5)ncc4c3)cc(C)c2n1 (centres unmarked) [Compound 279] | 100 to 1000 | 100 to 1000
6.00 to 7.00 | > 7.00 | 6.00 to 7.00 | Cc1cn2cc(-c3ccc4c(=O)n(C5CCNCC5)cnc4c3)cc(F)c2n1 [Compound 205, 7-(8-fluoro-2-methylimidazo[1,2-a]pyridin-6-yl)-3-(piperidin-4-yl)quinazolin-4(3H)-one] | 100 to 1000 | 100 to 1000
5.00 to 6.00 | 6.00 to 7.00 | 5.00 to 6.00 | Cc1cn2nc(-c3ccc4c(=O)n(C5CCN(C)C5)ncc4c3)cc(C)c2n1 (centres unmarked) [Compound 271, 6-{2,8-dimethylimidazo[1,2-b]pyridazin-6-yl}-2-(1-methylpyrrolidin-3-yl)phthalazin-1-one] | 1000 to 10000 | 1000 to 10000
5.00 to 6.00 | 6.00 to 7.00 | 5.00 to 6.00 | Cc1cn2cc(-c3ccc4c(=O)n(C5CCNCC5)cnc4c3F)cc(F)c2n1 [Compound 210, 8-fluoro-7-(8-fluoro-2-methylimidazo[1,2-a]pyridin-6-yl)-3-(piperidin-4-yl)quinazolin-4(3H)-one] | 1000 to 10000 | 1000 to 10000
5.00 to 6.00 | 6.00 to 7.00 | 5.00 to 6.00 | Cc1cn2nc(-c3ccc4c(=O)n(C5CCN(C)CC5)cnc4c3)cc(C)c2n1 [Compound 176, 7-(2,8-dimethylimidazo[1,2-b]pyridazin-6-yl)-3-(1-methylpiperidin-4-yl)quinazolin-4(3H)-one] | 1000 to 10000 | 1000 to 10000
6.00 to 7.00 | > 7.00 | 6.00 to 7.00 | Cc1nc2c(F)cc(-c3ccc4c(=O)n(C5CCNCC5)cnc4c3)cc2o1 [Compound 245] | 100 to 1000 | 100 to 1000
5.00 to 6.00 | 6.00 to 7.00 | < 5.00 | CCN1CCC(N2CCc3cc(-c4cc(C)c5nc(C)cn5n4)ccc3C2=O)CC1 [Compound 270] | 1000 to 10000 | 1000 to 10000
< 5.00 | < 5.00 | < 5.00 | Cc1cn2cc(-c3ccc4nc(N5CCNC6(CC6)C5)[nH]c(=O)c4c3)cc(F)c2n1 [Compound 191, 6-(8-fluoro-2-methylimidazo[1,2-a]pyridin-6-yl)-2-(4,7-diazaspiro[2.5]octan-7-yl)quinazolin-4(3H)-one] | > 10000 | > 10000
< 5.00 | < 5.00 | < 5.00 | Cc1cn2cc(-n3cnc4cc(N5CCN(C)CC5)ccc4c3=O)cc(F)c2n1 [Compound 229, 3-(8-fluoro-2-methylimidazo[1,2-a]pyridin-6-yl)-7-(4-methylpiperazin-1-yl)quinazolin-4(3H)-one] | > 10000 | > 10000

SMILES | pIC50 (HTT CJ mRNA) | pIC50 (SMN2 CJ mRNA) | pIC50 (Target C CJ mRNA) | AC50 (HTT mRNA; [1]) [nM] | AC50 (HTT mRNA; [2]) [nM]
CN(c1ccc2c(=O)n(-c3ccc4nn(C)cc4c3)cnc2c1)C1CCNCC1 [Compound 180, 7-(methyl(piperidin-4-yl)amino)-3-(2-methyl-2H-indazol-5-yl)quinazolin-4(3H)-one, hydrochloride] | < 5.00 | < 5.00 | 5.00 to 6.00 | > 10000 | > 10000
